The target in this assay is T1, human EGF-R (Homo sapiens, UniProt P00533).
T1 construct: expressed in transfected cells; host or cells: F/L-HERc cells (murine IL-3-dependent FDC-P1 line transduced with LXSN retroviral vector carrying human EGF-R cDNA; packaging line GP+E86)
Put plainly: Inhibition of the EGF-dependent proliferation of F/L-HERc cells (Cell Titer 96 proliferation assay). The format is cell-based. To be noted: F/L-HERc cells (murine IL-3-dependent line expressing human EGF-R), stimulated with EGF 20 ng/ml, 48 hours at 37° C. The text has this: A cell line of murine origin dependent on interleukin-3-(IL-3) which was genetically modified to express functional human EGF-R was used here. The proliferation of these cells known as F/L-HERc can therefore be stimulated either by murine IL-3 or by EGF (cf. von Rüden, T. et al. in EMBO J. 7, 2749-2756 (1988) and Pierce, J. H. et al. in Science 239, 628-631 (1988)).
The starting material used for the F/L-HERc cells was the cell line FDC-P1, the production of which has been described by Dexter, T. M. et al. in J. Exp. Med. 152, 1036-1047 (1980). Alternatively, however, other growth-factor-dependent cells may also be used (cf. for example Pierce, J. H. et al. in Science 239, 628-631 (1988), Shibuya, H. et al. in Cell 70, 57-67 (1992) and Alexander, W. S. et al. in EMBO J. 10, 3683-3691 (1991)). […]
In order to determine the inhibitory activity of the compounds according to the invention the relative cell number was measured in O.D. units using the Cell Titer 96™ Aqueous Non-Radioactive Cell Proliferation Assay (Promega). […]

SMILES strings stand for the structures.

T1 sequence (P00533 25-1210): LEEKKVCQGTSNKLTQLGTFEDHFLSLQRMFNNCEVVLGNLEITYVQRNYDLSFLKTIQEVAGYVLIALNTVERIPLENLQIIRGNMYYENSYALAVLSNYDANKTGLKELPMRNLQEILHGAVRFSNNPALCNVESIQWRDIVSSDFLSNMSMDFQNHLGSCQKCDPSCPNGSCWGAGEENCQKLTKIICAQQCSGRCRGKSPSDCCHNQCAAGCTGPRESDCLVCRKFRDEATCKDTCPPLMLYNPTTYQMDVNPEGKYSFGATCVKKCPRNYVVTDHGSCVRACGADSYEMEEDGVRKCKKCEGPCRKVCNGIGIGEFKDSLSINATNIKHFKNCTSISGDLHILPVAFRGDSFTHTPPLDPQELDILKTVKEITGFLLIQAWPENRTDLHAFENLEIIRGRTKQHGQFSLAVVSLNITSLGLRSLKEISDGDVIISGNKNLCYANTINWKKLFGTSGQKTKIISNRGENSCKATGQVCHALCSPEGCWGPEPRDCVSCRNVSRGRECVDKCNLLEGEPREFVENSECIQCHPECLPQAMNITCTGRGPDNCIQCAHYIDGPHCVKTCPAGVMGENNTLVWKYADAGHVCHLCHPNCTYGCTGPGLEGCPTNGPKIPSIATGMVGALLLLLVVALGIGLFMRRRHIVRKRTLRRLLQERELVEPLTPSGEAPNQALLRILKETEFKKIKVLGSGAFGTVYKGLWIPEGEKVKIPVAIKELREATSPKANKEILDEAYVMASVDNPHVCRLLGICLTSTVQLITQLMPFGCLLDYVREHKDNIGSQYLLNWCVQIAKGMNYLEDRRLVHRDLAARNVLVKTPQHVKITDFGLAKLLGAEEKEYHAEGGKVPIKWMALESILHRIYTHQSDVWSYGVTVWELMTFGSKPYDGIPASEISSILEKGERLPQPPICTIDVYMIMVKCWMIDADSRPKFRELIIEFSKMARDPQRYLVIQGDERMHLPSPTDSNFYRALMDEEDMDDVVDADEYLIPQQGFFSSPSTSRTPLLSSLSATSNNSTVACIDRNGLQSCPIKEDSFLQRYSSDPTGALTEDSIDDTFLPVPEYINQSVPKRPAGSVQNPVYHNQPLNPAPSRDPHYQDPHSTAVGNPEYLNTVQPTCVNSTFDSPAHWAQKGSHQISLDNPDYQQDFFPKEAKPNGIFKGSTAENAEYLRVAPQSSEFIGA

What is called IC50 is the concentration at which inhibition is half-maximal. Low readings indicate greater potency in that assay, high ones weaker potency in that assay. Turning to `COC[C@H]1CN(CC=CC(=O)Nc2cc3c(Nc4ccc(F)c(Cl)c4)ncnc3cc2OCC2CC2)CC(=O)O1` [Example 1, 4-[(3-chloro-4-fluoro-phenyl)amino]-6-{[4-((R)-2-methoxymethyl-6-oxo-morpholin-4-yl)-1-oxo-2-buten-1-yl]amino}-7-cyclopropylmethoxy-quinazoline], half-maximal inhibition (IC50) required 2 nM.
